In ChEMBL document CHEMBL3217454, “Structureactivity relationship studies using peptide arrays: the example of HIV-1 Revintegrase interaction” (Medchemcomm, 2013):
Square brackets hold non-standard residues; d marks the D form. Peptide text beside a SMILES is read from it. NMeF = CN[C@@H](Cc1ccccc1)C(=O)O; NMeK = CN[C@@H](CCCCN)C(=O)O

Experiments:
[1] = molecular target: Human immunodeficiency virus type 1 integrase (Human immunodeficiency virus 1) (UniProt Q7ZJM1); assay: Binding affinity to HIV-1 integrase measured after overnight incubation by chemiluminescence analysis relative to IN 174-188; set-up: concentration or dose not given beside the values
[2] = system: Human immunodeficiency virus 1; assay: Binding affinity to HLT-tagged HIV-1 Rev measured after overnight incubation by chemiluminescence analysis relative to IN 174-188; set-up: concentration or dose not given beside the values

Chain of Human immunodeficiency virus type 1 integrase (Human immunodeficiency virus 1) (Q7ZJM1 as listed by the source): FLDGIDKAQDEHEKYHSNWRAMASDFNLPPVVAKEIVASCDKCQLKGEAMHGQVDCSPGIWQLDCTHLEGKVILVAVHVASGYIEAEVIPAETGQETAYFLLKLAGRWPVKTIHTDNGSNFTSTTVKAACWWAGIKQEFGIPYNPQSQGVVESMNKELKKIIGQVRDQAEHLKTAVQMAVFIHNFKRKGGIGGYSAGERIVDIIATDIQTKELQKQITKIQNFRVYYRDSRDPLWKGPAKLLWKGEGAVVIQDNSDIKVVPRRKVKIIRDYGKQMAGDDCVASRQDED

CC[C@H](C)[C@H](NC(=O)[C@H](Cc1ccccc1)NC(=O)[C@@H](NC(=O)[C@H](C)NC(=O)[C@H](CCSC)NC(=O)[C@H](CCC(N)=O)NC(=O)[C@@H](NC(=O)[C@H](C)NC(=O)[C@@H](N)[C@@H](C)O)C(C)C)C(C)C)C(=O)N[C@@H](Cc1cnc[nH]1)C(=O)N[C@@H](CC(N)=O)C(=O)N[C@@H](C)C(=O)N[C@@H](CCCCN)C(=O)N[C@@H](CCCNC(=N)N)C(=O)N[C@@H](CCCCN)C(=O)O (H-TAVQMAVFIHNAKRK-OH)
Activity [1]: 134%
Activity [2]: 193%

CC[C@H](C)[C@H](NC(=O)[C@H](Cc1ccccc1)NC(=O)[C@@H](NC(=O)[C@H](C)NC(=O)[C@@H](N)CCSC)C(C)C)C(=O)N[C@@H](Cc1cnc[nH]1)C(=O)N[C@@H](CC(N)=O)C(=O)N[C@@H](Cc1ccccc1)C(=O)N[C@@H](CCCCN)C(=O)N[C@@H](CCCNC(=N)N)C(=O)N[C@@H](CCCCN)C(=O)O (H-MAVFIHNFKRK-OH)
Activity [1]: 106%
Activity [2]: 88%

CC[C@H](C)[C@H](NC(=O)[C@@H](N)Cc1ccccc1)C(=O)N[C@@H](Cc1cnc[nH]1)C(=O)N[C@@H](CC(N)=O)C(=O)N[C@@H](Cc1ccccc1)C(=O)N[C@@H](CCCCN)C(=O)N[C@@H](CCCNC(=N)N)C(=O)N[C@@H](CCCCN)C(=O)O (H-FIHNFKRK-OH)
Activity [1]: 133%
Activity [2]: 69%

CC[C@H](C)[C@H](NC(=O)[C@H](Cc1ccccc1)NC(=O)[C@@H](NC(=O)[C@H](C)NC(=O)[C@@H](CCSC)NC(=O)[C@H](CCC(N)=O)NC(=O)[C@@H](NC(=O)[C@H](C)NC(=O)[C@@H](N)[C@@H](C)O)C(C)C)C(C)C)C(=O)N[C@@H](Cc1cnc[nH]1)C(=O)N[C@@H](CC(N)=O)C(=O)N[C@@H](Cc1ccccc1)C(=O)N[C@@H](CCCCN)C(=O)N[C@@H](CCCNC(=N)N)C(=O)N[C@@H](CCCCN)C(=O)O
Activity [1]: 127%
Activity [2]: 196%

CC[C@H](C)[C@H](NC(=O)[C@H](Cc1ccccc1)NC(=O)[C@@H](NC(=O)[C@H](C)NC(=O)[C@H](CCSC)NC(=O)[C@H](CCC(N)=O)NC(=O)[C@@H](NC(=O)[C@H](C)NC(=O)[C@@H](N)[C@@H](C)O)C(C)C)C(C)C)C(=O)N[C@@H](Cc1cnc[nH]1)C(=O)O (H-TAVQMAVFIH-OH)
Activity [1]: 0%
Activity [2]: 0%

CC[C@H](C)[C@@H](NC(=O)[C@H](Cc1ccccc1)NC(=O)[C@@H](NC(=O)[C@H](C)NC(=O)[C@H](CCSC)NC(=O)[C@H](CCC(N)=O)NC(=O)[C@@H](NC(=O)[C@H](C)NC(=O)[C@@H](N)[C@@H](C)O)C(C)C)C(C)C)C(=O)N[C@@H](Cc1cnc[nH]1)C(=O)N[C@@H](CC(N)=O)C(=O)N[C@@H](Cc1ccccc1)C(=O)N[C@@H](CCCCN)C(=O)N[C@@H](CCCNC(=N)N)C(=O)N[C@@H](CCCCN)C(=O)O
Activity [1]: 99%
Activity [2]: 108%

CC[C@H](C)[C@H](NC(=O)[C@H](Cc1ccccc1)NC(=O)[C@@H](N)C(C)C)C(=O)N[C@@H](Cc1cnc[nH]1)C(=O)N[C@@H](CC(N)=O)C(=O)N[C@@H](Cc1ccccc1)C(=O)N[C@@H](CCCCN)C(=O)N[C@@H](CCCNC(=N)N)C(=O)N[C@@H](CCCCN)C(=O)O (H-VFIHNFKRK-OH)
Activity [1]: 132%
Activity [2]: 86%

CC[C@H](C)[C@H](NC(=O)[C@H](C)NC(=O)[C@@H](NC(=O)[C@H](C)NC(=O)[C@H](CCSC)NC(=O)[C@H](CCC(N)=O)NC(=O)[C@@H](NC(=O)[C@H](C)NC(=O)[C@@H](N)[C@@H](C)O)C(C)C)C(C)C)C(=O)N[C@@H](Cc1cnc[nH]1)C(=O)N[C@@H](CC(N)=O)C(=O)N[C@@H](Cc1ccccc1)C(=O)N[C@@H](CCCCN)C(=O)N[C@@H](CCCNC(=N)N)C(=O)N[C@@H](CCCCN)C(=O)O (H-TAVQMAVAIHNFKRK-OH)
Activity [1]: 104%
Activity [2]: 216%

CC[C@H](C)[C@H](NC(=O)[C@H](Cc1ccccc1)NC(=O)[C@@H](NC(=O)[C@H](C)NC(=O)[C@H](CCSC)NC(=O)[C@H](CCC(N)=O)NC(=O)[C@@H](NC(=O)[C@H](C)NC(=O)[C@H](N)[C@@H](C)O)C(C)C)C(C)C)C(=O)N[C@@H](Cc1cnc[nH]1)C(=O)N[C@@H](CC(N)=O)C(=O)N[C@@H](Cc1ccccc1)C(=O)N[C@@H](CCCCN)C(=O)N[C@@H](CCCNC(=N)N)C(=O)N[C@@H](CCCCN)C(=O)O
Activity [1]: 73%
Activity [2]: 141%

CC[C@H](C)[C@H](NC(=O)[C@H](Cc1ccccc1)NC(=O)[C@@H](NC(=O)[C@H](C)NC(=O)[C@H](CCSC)NC(=O)[C@H](CCC(N)=O)NC(=O)[C@@H](NC(=O)[C@H](C)NC(=O)[C@@H](N)[C@@H](C)O)C(C)C)C(C)C)C(=O)N[C@@H](Cc1cnc[nH]1)C(=O)N[C@@H](CC(N)=O)C(=O)N[C@H](Cc1ccccc1)C(=O)N[C@@H](CCCCN)C(=O)N[C@@H](CCCNC(=N)N)C(=O)N[C@@H](CCCCN)C(=O)O
Activity [1]: 112%
Activity [2]: 156%

CC[C@H](C)[C@H](NC(=O)[C@H](Cc1ccccc1)NC(=O)[C@@H](NC(=O)[C@H](C)NC(=O)[C@H](CCSC)NC(=O)[C@H](CCC(N)=O)NC(=O)[C@@H](NC(=O)[C@H](C)NC(=O)[C@@H](N)[C@@H](C)O)C(C)C)C(C)C)C(=O)N[C@@H](Cc1cnc[nH]1)C(=O)N[C@@H](CC(N)=O)C(=O)O (H-TAVQMAVFIHN-OH)
Activity [1]: 0%
Activity [2]: 0%

CC[C@H](C)[C@H](NC(=O)[C@H](Cc1ccccc1)NC(=O)[C@@H](NC(=O)[C@H](C)NC(=O)[C@H](CCSC)NC(=O)[C@@H](CCC(N)=O)NC(=O)[C@@H](NC(=O)[C@H](C)NC(=O)[C@@H](N)[C@@H](C)O)C(C)C)C(C)C)C(=O)N[C@@H](Cc1cnc[nH]1)C(=O)N[C@@H](CC(N)=O)C(=O)N[C@@H](Cc1ccccc1)C(=O)N[C@@H](CCCCN)C(=O)N[C@@H](CCCNC(=N)N)C(=O)N[C@@H](CCCCN)C(=O)O
Activity [1]: 154%
Activity [2]: 173%

CC[C@H](C)[C@H](NC(=O)[C@H](Cc1ccccc1)NC(=O)[C@H](C)NC(=O)[C@H](C)NC(=O)[C@H](CCSC)NC(=O)[C@H](CCC(N)=O)NC(=O)[C@@H](NC(=O)[C@H](C)NC(=O)[C@@H](N)[C@@H](C)O)C(C)C)C(=O)N[C@@H](Cc1cnc[nH]1)C(=O)N[C@@H](CC(N)=O)C(=O)N[C@@H](Cc1ccccc1)C(=O)N[C@@H](CCCCN)C(=O)N[C@@H](CCCNC(=N)N)C(=O)N[C@@H](CCCCN)C(=O)O (H-TAVQMAAFIHNFKRK-OH)
Activity [1]: 123%
Activity [2]: 222%

CC[C@H](C)[C@H](NC(=O)[C@H](Cc1ccccc1)NC(=O)[C@@H](NC(=O)[C@H](C)NC(=O)[C@H](CCSC)NC(=O)[C@H](CCC(N)=O)NC(=O)[C@@H](NC(=O)[C@H](C)NC(=O)[C@@H](N)[C@@H](C)O)C(C)C)C(C)C)C(=O)N[C@@H](Cc1cnc[nH]1)C(=O)N[C@@H](CC(N)=O)C(=O)N[C@@H](Cc1ccccc1)C(=O)N[C@@H](CCCCN)C(=O)N[C@@H](CCCNC(=N)N)C(=O)N[C@H](CCCCN)C(=O)O
Activity [1]: 86%
Activity [2]: 110%

CC[C@H](C)[C@H](NC(=O)[C@H](Cc1ccccc1)NC(=O)[C@@H](NC(=O)[C@H](C)NC(=O)[C@H](CCSC)NC(=O)[C@H](CCC(N)=O)NC(=O)[C@@H](NC(=O)[C@H](C)NC(=O)[C@@H](N)[C@@H](C)O)C(C)C)C(C)C)C(=O)O (H-TAVQMAVFI-OH)
Activity [1]: 0%
Activity [2]: 0%

CC[C@H](C)[C@H](NC(=O)[C@H](Cc1ccccc1)NC(=O)[C@@H](NC(=O)[C@H](C)NC(=O)[C@H](CCSC)NC(=O)[C@H](CCC(N)=O)NC(=O)[C@@H](NC(=O)[C@H](C)NC(=O)[C@@H](N)[C@@H](C)O)C(C)C)C(C)C)C(=O)N[C@@H](Cc1cnc[nH]1)C(=O)N[C@@H](CC(N)=O)C(=O)N[C@@H](Cc1ccccc1)C(=O)N[C@H](CCCCN)C(=O)N[C@@H](CCCNC(=N)N)C(=O)N[C@@H](CCCCN)C(=O)O
Activity [1]: 110%
Activity [2]: 120%

CC[C@H](C)[C@H](NC(=O)[C@H](Cc1ccccc1)N(C)C(=O)[C@@H](NC(=O)[C@H](C)NC(=O)[C@H](CCSC)NC(=O)[C@H](CCC(N)=O)NC(=O)[C@@H](NC(=O)[C@H](C)NC(=O)[C@@H](N)[C@@H](C)O)C(C)C)C(C)C)C(=O)N[C@@H](Cc1cnc[nH]1)C(=O)N[C@@H](CC(N)=O)C(=O)N[C@@H](Cc1ccccc1)C(=O)N[C@@H](CCCCN)C(=O)N[C@@H](CCCNC(=N)N)C(=O)N[C@@H](CCCCN)C(=O)O (H-TAVQMAV[NMeF]IHNFKRK-OH)
Activity [1]: 141%
Activity [2]: 152%

CC[C@H](C)[C@H](NC(=O)[C@H](Cc1ccccc1)NC(=O)[C@@H](NC(=O)[C@@H](C)NC(=O)[C@H](CCSC)NC(=O)[C@H](CCC(N)=O)NC(=O)[C@@H](NC(=O)[C@H](C)NC(=O)[C@@H](N)[C@@H](C)O)C(C)C)C(C)C)C(=O)N[C@@H](Cc1cnc[nH]1)C(=O)N[C@@H](CC(N)=O)C(=O)N[C@@H](Cc1ccccc1)C(=O)N[C@@H](CCCCN)C(=O)N[C@@H](CCCNC(=N)N)C(=O)N[C@@H](CCCCN)C(=O)O
Activity [1]: 142%
Activity [2]: 194%

CC[C@H](C)[C@H](NC(=O)[C@H](Cc1ccccc1)NC(=O)[C@@H](NC(=O)[C@H](C)NC(=O)[C@H](CCSC)NC(=O)[C@H](CCC(N)=O)NC(=O)[C@@H](NC(=O)[C@H](C)NC(=O)[C@@H](N)[C@@H](C)O)C(C)C)C(C)C)C(=O)N[C@@H](Cc1cnc[nH]1)C(=O)N[C@@H](CC(N)=O)C(=O)N[C@@H](Cc1ccccc1)C(=O)N[C@@H](CCCCN)C(=O)N[C@@H](C)C(=O)N[C@@H](CCCCN)C(=O)O (H-TAVQMAVFIHNFKAK-OH)
Activity [1]: 127%
Activity [2]: 234%

CC[C@H](C)[C@H](NC(=O)[C@H](Cc1ccccc1)NC(=O)[C@@H](NC(=O)[C@H](C)NC(=O)[C@H](CCSC)NC(=O)[C@H](CCC(N)=O)NC(=O)[C@@H](NC(=O)[C@H](C)NC(=O)[C@@H](N)[C@@H](C)O)C(C)C)C(C)C)C(=O)N[C@@H](Cc1cnc[nH]1)C(=O)N[C@@H](CC(N)=O)C(=O)N[C@@H](Cc1ccccc1)C(=O)N(C)[C@@H](CCCCN)C(=O)N[C@@H](CCCNC(=N)N)C(=O)N[C@@H](CCCCN)C(=O)O (H-TAVQMAVFIHNF[NMeK]RK-OH)
Activity [1]: 130%
Activity [2]: 70%

CC[C@H](C)[C@H](NC(=O)[C@H](Cc1ccccc1)NC(=O)[C@@H](NC(=O)[C@H](C)NC(=O)[C@H](CCSC)NC(=O)[C@H](C)NC(=O)[C@@H](NC(=O)[C@H](C)NC(=O)[C@@H](N)[C@@H](C)O)C(C)C)C(C)C)C(=O)N[C@@H](Cc1cnc[nH]1)C(=O)N[C@@H](CC(N)=O)C(=O)N[C@@H](Cc1ccccc1)C(=O)N[C@@H](CCCCN)C(=O)N[C@@H](CCCNC(=N)N)C(=O)N[C@@H](CCCCN)C(=O)O (H-TAVAMAVFIHNFKRK-OH)
Activity [1]: 83%
Activity [2]: 79%
